Data: ChEMBL document CHEMBL1862790, “Optimisation of fenarimol series for the treatment of Chagas disease”

Experiments:
Trypanosoma cruzi [1] = assay: microbe, parasite or virus in culture; type: functional, organism-based, Tulahuen LacZ, Clone C4; settings: Trypanosoma cruzi, Tulahuen LacZ, Clone C4
Trypanosoma cruzi [2] = assay: microbe, parasite or virus in culture; type: functional, Tulahuen LacZ, Clone C4; settings: Trypanosoma cruzi, Tulahuen LacZ, Clone C4
[3] = DNDI: Cytotoxicity against L-6 rat myoblasts from skeletal muscle cells; settings: L6 rat skeletal muscle myoblast cells

SMILES	IC50 (Trypanosoma cruzi [1]) [µM]	IC90 (Trypanosoma cruzi [2]) [µM]	IC50 ([3]; IC50) [µM]	IC50 [3] [µM]
CC(C)CS(=O)(=O)N1CCC(NC(c2ccc(C(F)(F)F)cc2)c2cnccn2)CC1 (stereo not given)	0.33	0.88	> 100	
O=S(=O)(NC(c1ccc(C(F)(F)F)cc1)c1cnccn1)c1ccccc1 (stereo not given)	3.65	7.67	> 100	
COc1ccccc1N1CCN(C(c2cccnc2)c2ccc(Cl)cc2F)CC1 (stereo not given)	0.045	0.1	59.9	
CC(C)CC(=O)NC(c1ccc(C(F)(F)F)cc1)c1cnccn1 (stereo not given)	8.91	> 10	> 100	
OC1CCN(C(c2ccc(C(F)(F)F)cc2)c2cnccn2)CC1 (stereo not given)	6.52	> 10	> 100	
O=C(c1ccccc1)N1CCC(NC(c2ccc(C(F)(F)F)cc2)c2cnccn2)CC1 (stereo not given)	0.32	0.91	> 100	
O=S(=O)(Cc1ccccc1)N1CCC(NC(c2ccc(C(F)(F)F)cc2)c2cnccn2)CC1 (stereo not given)	0.21	0.77	> 100	
O=C(NC(c1ccc(C(F)(F)F)cc1)c1cnccn1)c1ccc(C(F)(F)F)cc1 (stereo not given)	0.59	> 1	61.2	
O=S(=O)(c1ccccc1)N1CCN(C(c2ccc(Cl)cc2)c2cncnc2)CC1 (stereo not given)	0.066	0.32	> 76.1	
O=C(C1CCCCC1)N1CCC(NC(c2ccc(C(F)(F)F)cc2)c2cnccn2)CC1 (stereo not given)	0.2	0.54	83.8	
CON=C(c1ccc(C(F)(F)F)cc1)c1cccnc1	> 1	> 1	70.3	
CC(C)CC(=O)N1CCC(NC(c2ccc(C(F)(F)F)cc2)c2cnccn2)CC1 (stereo not given)	0.27	0.66	> 100	
CS(=O)(=O)N1CCC(NC(c2ccc(C(F)(F)F)cc2)c2cnccn2)CC1 (stereo not given)	0.97	2.76	> 100	
CC(C)S(=O)(=O)NC(c1ccc(C(F)(F)F)cc1)c1cnccn1 (stereo not given)	> 1	> 1	> 100	
O=S(=O)(NC(c1ccc(C(F)(F)F)cc1)c1cnccn1)c1ccc(Cl)cc1 (stereo not given)	> 1	> 1	56.4	
O=C(Cc1ccccc1)NC(c1ccc(C(F)(F)F)cc1)c1cnccn1 (stereo not given)	> 1	> 1	> 100	
O=C(C1CC1)N1CCC(NC(c2ccc(C(F)(F)F)cc2)c2cnccn2)CC1 (stereo not given)	0.47	0.85	> 100	
CS(=O)(=O)NC(c1ccc(C(F)(F)F)cc1)c1cnccn1 (stereo not given)	> 10	> 10	> 100	
O=S(=O)(NC(c1ccc(C(F)(F)F)cc1)c1cnccn1)C1CCCCC1 (stereo not given)	> 1	> 1	85	
CC(C)Oc1ccc(C(c2cccnc2)N2CCN(C(=O)C(C)C)CC2)cc1 (stereo not given)	0.035	0.2	> 100	
FC(F)(F)c1ccc(C(NCC2CCCCC2)c2cnccn2)cc1 (stereo not given)	0.39	0.74	59.2	
CC1(C)COC(c2cccc(C(O)(c3ccc(Cl)cc3)c3cncnc3)c2)=N1 (stereo not given)	0.5	0.89	> 100	
O=S(=O)(C1CCCCC1)N1CCC(NC(c2ccc(C(F)(F)F)cc2)c2cnccn2)CC1 (stereo not given)	0.57	0.97	62.6	
CN(CC1CCCCC1)C(c1ccc(C(F)(F)F)cc1)c1cnccn1 (stereo not given)	0.48	0.82	55.6	
CCS(=O)(=O)NC(c1ccc(C(F)(F)F)cc1)c1cnccn1 (stereo not given)	> 1	> 1	> 100	
O=C(NC(c1ccc(C(F)(F)F)cc1)c1cnccn1)c1ccc(Cl)cc1 (stereo not given)	0.86	> 1	61.8	
CC(C)c1ccc(S(=O)(=O)NC(c2ccc(C(F)(F)F)cc2)c2cnccn2)cc1 (stereo not given)	> 1	> 1	60.1	
CON=C(c1ccc(C(F)(F)F)cc1)c1cnccn1	> 1	> 1	> 100	

SMILES	IC50 (Trypanosoma cruzi [1]) [µM]	IC90 (Trypanosoma cruzi [2]) [µM]	IC50 ([3]; IC50) [µM]	IC50 [3] [µM]
N#Cc1ccc(C(O)(c2ccc(Cl)cc2)c2cccnc2)c(F)c1 (stereo not given)	0.026	0.11	> 100	
CC(C)(C)OC(=O)N1CCC(CNC(c2ccc(C(F)(F)F)cc2)c2cnccn2)CC1 (stereo not given)	0.076	0.26	73.3	
CC(C)(C)OC(=O)N1CCC(NC(c2ccc(C(F)(F)F)cc2)c2cnccn2)CC1 (stereo not given)	0.058	0.14	62.8	
O=S(=O)(Cc1ccccc1)NC(c1ccc(C(F)(F)F)cc1)c1cnccn1 (stereo not given)	> 1	> 1	> 100	
CN(C)C(=O)C1CCN(C(c2ccc(C(F)(F)F)cc2)c2cnccn2)CC1 (stereo not given)	1.01	3.41	> 100	
CN(C)C(=O)NC(c1ccc(C(F)(F)F)cc1)c1cnccn1 (stereo not given)	> 1	> 1	> 100	
O=S(=O)(NC(c1ccc(C(F)(F)F)cc1)c1cnccn1)c1ccc(C(F)(F)F)cc1 (stereo not given)	> 1	> 1	59.9	
CN(C)CCOc1ncc(C(O)(c2ccc(Cl)cc2)c2cccnc2)cn1 (stereo not given)	> 1	> 1	> 100	
N#Cc1ccc(C(O)(c2ccc(Cl)cc2)c2cccnc2)cc1 (stereo not given)	0.059	0.16	> 100	
CC(C)(C)OC(=O)NC1CCN(C(c2ccc(C(F)(F)F)cc2)c2cnccn2)CC1 (stereo not given)	0.16	0.4	56.7	
O=S(=O)(c1ccccc1)N1CCC(NC(c2ccc(C(F)(F)F)cc2)c2cnccn2)CC1 (stereo not given)	0.17	0.32	> 100	
O=C(Cc1ccccc1)N1CCC(NC(c2ccc(C(F)(F)F)cc2)c2cnccn2)CC1 (stereo not given)	0.54	0.95	70.5	
O=S(=O)(c1ccc(Cl)cc1)N1CCC(NC(c2ccc(C(F)(F)F)cc2)c2cnccn2)CC1 (stereo not given)	0.33	0.91	> 100	
O=C(NC(c1ccc(C(F)(F)F)cc1)c1cnccn1)c1ccccc1 (stereo not given)	> 1	> 1	> 100	
NC(=O)c1ccc(C(O)(c2ccc(Cl)cc2)c2cccnc2)c(F)c1 (stereo not given)	0.66	0.79	> 100	
Fc1ccccc1C(c1ccc(C(F)(F)F)cc1)c1cccnc1 (stereo not given)	0.15	0.51		64
CC(=O)N1CCC(NC(c2ccc(C(F)(F)F)cc2)c2cnccn2)CC1 (stereo not given)	3.05	7.81	> 100	
CC(C)C(=O)NC(c1ccc(C(F)(F)F)cc1)c1cnccn1 (stereo not given)	> 10	> 10	> 100	
CC(C)CNC(c1ccc(C(F)(F)F)cc1)c1cnccn1 (stereo not given)	0.8	2.1	> 100	
CC(C)C(=O)N1CCN(C(c2ccc(Cl)cc2)c2cncnc2)CC1 (stereo not given)	0.37	0.94	> 100	
CC(C)CS(=O)(=O)NC(c1ccc(C(F)(F)F)cc1)c1cnccn1 (stereo not given)	> 1	> 1	> 100	
O=C(NC(c1ccc(C(F)(F)F)cc1)c1cnccn1)C1CC1 (stereo not given)	> 10	> 10	> 100	
FC(F)(F)c1ccc(C(NCC2CCCCC2)c2cccnc2)cc1 (stereo not given)	0.11	0.22	54	
O=C(NC(c1ccc(C(F)(F)F)cc1)c1cnccn1)C1CCCCC1 (stereo not given)	1.57	4.79	> 100	
CCS(=O)(=O)N1CCN(C(c2ccc(Cl)cc2)c2cncnc2)CC1 (stereo not given)	0.26	0.85	> 100	
CC(=O)NC(c1ccc(C(F)(F)F)cc1)c1cnccn1 (stereo not given)	> 10	> 10	> 100	
NC(=O)C1CCN(C(c2ccc(C(F)(F)F)cc2)c2cnccn2)CC1 (stereo not given)	6.41	> 10	> 100	
